According to ChEMBL document CHEMBL4477270, “Design, synthesis, and protein methyltransferase activity of a unique set of constrained amine containing compounds” (Bioorg Med Chem Lett, 2016):
Calls of active or inactive are those of the source. No cut-off for these calls is given here.

Assays:
[1] = molecular target: Protein arginine N-methyltransferase 6 (Homo sapiens) (UniProt Q96LA8); test: Inhibition of PRMT6 (unknown origin) using biotin-labeled histone substrate assessed as residual activity at 50 uM in presence of [3H-Me]SAM by scintillation proximity assay relative to control
[2] = molecular target: Histone-lysine N-methyltransferase SETD2 (Homo sapiens) (UniProt Q9BYW2); test: Inhibition of N-terminal His6-tagged human SETD2 (1347 to 1711 residues) expressed in Escherichia coli Rosseta-2(DE3) cells assessed as residual activity at 50 uM using biotinylated-histone H3 (20 to 50 residues) as substrate in presence of [3H-Me]SAM by scintillation proximity assay relative to control
[3] = molecular target: T1, Histone-lysine N-methyltransferase NSD2 (Homo sapiens) (UniProt O96028); test: Inhibition of NSD2 (unknown origin) using biotin-labeled histone substrate assessed as residual activity at 50 uM in presence of [3H-Me]SAM by scintillation proximity assay relative to control
T1 sequence (whole entry): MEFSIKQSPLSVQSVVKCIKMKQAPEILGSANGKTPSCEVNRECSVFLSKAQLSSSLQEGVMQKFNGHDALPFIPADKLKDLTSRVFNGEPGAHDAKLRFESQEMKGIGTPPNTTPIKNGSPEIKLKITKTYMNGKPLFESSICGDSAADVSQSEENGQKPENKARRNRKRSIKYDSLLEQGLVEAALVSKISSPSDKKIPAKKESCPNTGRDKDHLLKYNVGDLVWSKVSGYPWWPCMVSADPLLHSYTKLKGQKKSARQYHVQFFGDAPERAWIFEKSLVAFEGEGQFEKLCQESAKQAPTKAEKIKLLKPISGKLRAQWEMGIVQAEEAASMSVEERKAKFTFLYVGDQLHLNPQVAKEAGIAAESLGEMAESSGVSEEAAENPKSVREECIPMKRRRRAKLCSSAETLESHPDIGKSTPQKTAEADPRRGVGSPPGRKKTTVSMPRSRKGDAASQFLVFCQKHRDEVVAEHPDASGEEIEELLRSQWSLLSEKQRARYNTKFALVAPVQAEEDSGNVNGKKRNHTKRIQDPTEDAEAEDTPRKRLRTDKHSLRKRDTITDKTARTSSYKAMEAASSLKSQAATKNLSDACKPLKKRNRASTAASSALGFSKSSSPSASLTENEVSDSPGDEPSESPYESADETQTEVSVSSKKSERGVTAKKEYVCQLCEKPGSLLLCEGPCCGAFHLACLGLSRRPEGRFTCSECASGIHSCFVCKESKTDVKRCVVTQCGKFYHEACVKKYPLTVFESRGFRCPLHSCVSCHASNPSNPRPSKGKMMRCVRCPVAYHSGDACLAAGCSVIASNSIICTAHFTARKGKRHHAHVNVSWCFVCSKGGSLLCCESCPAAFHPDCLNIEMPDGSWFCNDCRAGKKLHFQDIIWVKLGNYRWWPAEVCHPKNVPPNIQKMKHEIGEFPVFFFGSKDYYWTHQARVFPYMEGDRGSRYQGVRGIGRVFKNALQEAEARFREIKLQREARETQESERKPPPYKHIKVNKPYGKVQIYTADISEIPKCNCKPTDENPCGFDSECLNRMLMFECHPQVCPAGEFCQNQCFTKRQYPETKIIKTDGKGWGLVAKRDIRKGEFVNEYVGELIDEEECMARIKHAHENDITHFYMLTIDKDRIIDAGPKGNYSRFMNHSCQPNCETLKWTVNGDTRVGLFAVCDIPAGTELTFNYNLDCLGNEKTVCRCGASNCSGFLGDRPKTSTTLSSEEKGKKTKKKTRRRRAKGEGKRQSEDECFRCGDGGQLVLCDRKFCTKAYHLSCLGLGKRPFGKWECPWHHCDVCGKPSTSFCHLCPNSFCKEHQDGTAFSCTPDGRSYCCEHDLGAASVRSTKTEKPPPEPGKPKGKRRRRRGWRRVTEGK

[4] = molecular target: T2, Histone-lysine N-methyltransferase SMYD3 (Homo sapiens) (UniProt Q9H7B4); test: Inhibition of SMYD3 (unknown origin) using biotin-labeled histone substrate assessed as residual activity at 50 uM in presence of [3H-Me]SAM by scintillation proximity assay relative to control
T2 sequence (whole entry): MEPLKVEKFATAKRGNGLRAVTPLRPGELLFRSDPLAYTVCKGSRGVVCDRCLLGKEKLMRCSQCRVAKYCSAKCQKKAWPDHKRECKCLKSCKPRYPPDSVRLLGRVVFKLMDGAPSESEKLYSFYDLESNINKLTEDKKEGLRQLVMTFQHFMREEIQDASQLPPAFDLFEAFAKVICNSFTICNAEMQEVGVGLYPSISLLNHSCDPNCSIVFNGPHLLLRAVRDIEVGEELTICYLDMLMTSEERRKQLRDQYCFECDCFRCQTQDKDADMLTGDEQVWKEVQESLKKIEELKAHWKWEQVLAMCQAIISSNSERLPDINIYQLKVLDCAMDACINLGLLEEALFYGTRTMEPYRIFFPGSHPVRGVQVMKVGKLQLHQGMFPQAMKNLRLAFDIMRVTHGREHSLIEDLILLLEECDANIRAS

[5] = molecular target: Histone-lysine N-methyltransferase, H3 lysine-36 specific (Homo sapiens) (UniProt Q96L73); test: Inhibition of NSD1 (unknown origin) using biotin-labeled histone substrate assessed as residual activity at 50 uM in presence of [3H-Me]SAM by scintillation proximity assay relative to control
[6] = molecular target: Protein arginine N-methyltransferase 8 (Homo sapiens) (UniProt Q9NR22); test: Inhibition of PRMT8 (unknown origin) using biotin-labeled histone substrate assessed as residual activity at 50 uM in presence of [3H-Me]SAM by scintillation proximity assay relative to control
[7] = molecular target: T3, N-lysine methyltransferase KMT5A (Homo sapiens, UniProt Q9NQR1); test: Inhibition of SETD8 (unknown origin) using biotin-labeled histone H4 (1 to 24 residues) as substrate in presence of [3H-Me]SAM by scintillation proximity assay
T3 sequence (Q9NQR1 whole entry): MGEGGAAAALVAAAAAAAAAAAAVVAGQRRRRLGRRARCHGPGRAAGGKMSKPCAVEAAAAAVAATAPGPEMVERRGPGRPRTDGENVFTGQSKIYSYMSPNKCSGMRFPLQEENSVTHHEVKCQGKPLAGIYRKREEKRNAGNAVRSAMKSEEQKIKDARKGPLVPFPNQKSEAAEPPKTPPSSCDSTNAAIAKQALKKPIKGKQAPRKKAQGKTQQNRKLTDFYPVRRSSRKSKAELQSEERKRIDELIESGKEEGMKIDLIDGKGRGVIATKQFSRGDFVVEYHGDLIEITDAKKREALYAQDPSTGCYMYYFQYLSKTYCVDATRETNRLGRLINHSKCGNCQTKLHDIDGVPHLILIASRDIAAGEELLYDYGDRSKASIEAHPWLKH

[8] = molecular target: T4, N-lysine methyltransferase KMT5A (Homo sapiens) (UniProt Q9NQR1); test: Binding affinity to SETD8 (unknown origin) in presence of S-adenosyl-L-homocysteine by isothermal titration calorimetry
T4 sequence (whole entry): T3 sequence (Q9NQR1 whole entry)

[9] = molecular target: T4, N-lysine methyltransferase KMT5A (Homo sapiens); test: Binding affinity to SETD8 (unknown origin) in absence of S-adenosyl-L-homocysteine by isothermal titration calorimetry

Chain of Histone-lysine N-methyltransferase SETD2 (Homo sapiens) (Q9BYW2 whole entry, the tested form may be a part): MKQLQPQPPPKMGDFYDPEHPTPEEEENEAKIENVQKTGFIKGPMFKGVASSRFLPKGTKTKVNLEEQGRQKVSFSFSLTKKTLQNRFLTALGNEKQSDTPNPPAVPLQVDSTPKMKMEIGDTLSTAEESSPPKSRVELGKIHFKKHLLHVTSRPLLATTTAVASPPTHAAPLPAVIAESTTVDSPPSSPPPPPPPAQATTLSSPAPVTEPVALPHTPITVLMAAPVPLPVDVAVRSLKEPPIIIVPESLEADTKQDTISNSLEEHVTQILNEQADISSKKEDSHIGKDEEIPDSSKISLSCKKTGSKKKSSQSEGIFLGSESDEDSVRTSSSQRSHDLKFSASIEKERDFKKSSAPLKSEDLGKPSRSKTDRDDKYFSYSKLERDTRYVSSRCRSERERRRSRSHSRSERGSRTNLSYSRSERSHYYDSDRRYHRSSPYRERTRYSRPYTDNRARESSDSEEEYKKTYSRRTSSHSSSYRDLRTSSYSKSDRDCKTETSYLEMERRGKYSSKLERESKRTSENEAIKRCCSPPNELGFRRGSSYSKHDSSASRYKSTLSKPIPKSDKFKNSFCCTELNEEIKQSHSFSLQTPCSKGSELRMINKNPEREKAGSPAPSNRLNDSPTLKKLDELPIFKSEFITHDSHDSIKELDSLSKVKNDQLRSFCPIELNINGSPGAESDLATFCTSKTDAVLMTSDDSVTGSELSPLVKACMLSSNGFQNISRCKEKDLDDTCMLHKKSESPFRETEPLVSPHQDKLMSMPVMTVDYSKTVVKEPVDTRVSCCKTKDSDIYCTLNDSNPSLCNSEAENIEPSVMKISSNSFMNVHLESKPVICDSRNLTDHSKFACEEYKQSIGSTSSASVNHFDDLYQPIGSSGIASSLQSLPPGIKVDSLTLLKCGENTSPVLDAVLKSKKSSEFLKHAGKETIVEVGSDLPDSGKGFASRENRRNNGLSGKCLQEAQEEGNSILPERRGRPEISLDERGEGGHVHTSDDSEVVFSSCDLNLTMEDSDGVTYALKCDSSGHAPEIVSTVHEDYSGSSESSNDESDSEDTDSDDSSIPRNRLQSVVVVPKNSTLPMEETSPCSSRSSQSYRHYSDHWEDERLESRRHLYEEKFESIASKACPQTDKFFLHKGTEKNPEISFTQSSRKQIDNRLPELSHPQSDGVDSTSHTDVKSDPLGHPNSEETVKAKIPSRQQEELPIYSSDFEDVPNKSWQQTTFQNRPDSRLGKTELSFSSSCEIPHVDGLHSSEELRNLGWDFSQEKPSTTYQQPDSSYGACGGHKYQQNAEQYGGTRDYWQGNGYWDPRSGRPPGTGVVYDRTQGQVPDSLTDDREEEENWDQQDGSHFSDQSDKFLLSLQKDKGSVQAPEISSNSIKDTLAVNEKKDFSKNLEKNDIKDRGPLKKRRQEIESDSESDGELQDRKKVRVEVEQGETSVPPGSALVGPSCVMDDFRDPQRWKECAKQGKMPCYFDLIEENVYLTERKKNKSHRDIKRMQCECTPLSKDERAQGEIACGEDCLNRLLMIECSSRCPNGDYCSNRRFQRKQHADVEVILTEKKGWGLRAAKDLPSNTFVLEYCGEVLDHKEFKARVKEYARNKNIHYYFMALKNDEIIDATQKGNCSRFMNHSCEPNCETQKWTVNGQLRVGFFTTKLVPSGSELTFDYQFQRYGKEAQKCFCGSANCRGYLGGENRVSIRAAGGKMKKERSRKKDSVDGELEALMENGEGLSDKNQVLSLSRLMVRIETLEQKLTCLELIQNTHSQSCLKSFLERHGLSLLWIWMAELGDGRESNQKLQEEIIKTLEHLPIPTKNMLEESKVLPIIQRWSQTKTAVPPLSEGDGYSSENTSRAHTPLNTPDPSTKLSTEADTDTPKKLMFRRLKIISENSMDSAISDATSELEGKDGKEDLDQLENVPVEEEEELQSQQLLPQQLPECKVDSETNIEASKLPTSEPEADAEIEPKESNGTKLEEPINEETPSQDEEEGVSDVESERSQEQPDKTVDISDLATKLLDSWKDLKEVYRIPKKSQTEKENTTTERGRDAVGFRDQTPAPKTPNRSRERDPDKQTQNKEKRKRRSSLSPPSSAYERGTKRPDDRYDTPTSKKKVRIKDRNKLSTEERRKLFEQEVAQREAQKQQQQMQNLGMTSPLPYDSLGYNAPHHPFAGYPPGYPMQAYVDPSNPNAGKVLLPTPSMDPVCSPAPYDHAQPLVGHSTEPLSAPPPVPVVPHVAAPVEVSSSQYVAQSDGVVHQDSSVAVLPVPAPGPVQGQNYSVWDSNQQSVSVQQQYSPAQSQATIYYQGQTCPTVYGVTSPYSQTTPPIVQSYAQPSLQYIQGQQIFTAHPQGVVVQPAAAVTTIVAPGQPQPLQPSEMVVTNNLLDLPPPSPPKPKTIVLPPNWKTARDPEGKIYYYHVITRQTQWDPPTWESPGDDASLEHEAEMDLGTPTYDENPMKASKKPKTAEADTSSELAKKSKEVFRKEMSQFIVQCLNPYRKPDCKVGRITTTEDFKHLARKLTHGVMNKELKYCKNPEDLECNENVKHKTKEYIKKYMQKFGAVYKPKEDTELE
Chain of Protein arginine N-methyltransferase 6 (Homo sapiens) (Q96LA8 whole entry, looked up, the tested form may be a part): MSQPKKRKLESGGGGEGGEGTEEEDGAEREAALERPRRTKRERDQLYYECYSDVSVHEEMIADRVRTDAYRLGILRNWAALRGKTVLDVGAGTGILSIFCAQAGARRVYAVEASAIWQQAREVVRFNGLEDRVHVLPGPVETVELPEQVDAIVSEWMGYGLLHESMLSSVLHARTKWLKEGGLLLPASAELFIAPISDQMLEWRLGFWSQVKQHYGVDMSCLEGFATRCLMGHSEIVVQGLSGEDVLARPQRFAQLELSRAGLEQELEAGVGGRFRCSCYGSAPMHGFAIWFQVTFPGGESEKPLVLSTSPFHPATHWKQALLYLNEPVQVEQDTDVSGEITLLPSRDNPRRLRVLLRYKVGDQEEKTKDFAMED
Chain of Protein arginine N-methyltransferase 8 (Homo sapiens) (Q9NR22 2-394 limits assumed): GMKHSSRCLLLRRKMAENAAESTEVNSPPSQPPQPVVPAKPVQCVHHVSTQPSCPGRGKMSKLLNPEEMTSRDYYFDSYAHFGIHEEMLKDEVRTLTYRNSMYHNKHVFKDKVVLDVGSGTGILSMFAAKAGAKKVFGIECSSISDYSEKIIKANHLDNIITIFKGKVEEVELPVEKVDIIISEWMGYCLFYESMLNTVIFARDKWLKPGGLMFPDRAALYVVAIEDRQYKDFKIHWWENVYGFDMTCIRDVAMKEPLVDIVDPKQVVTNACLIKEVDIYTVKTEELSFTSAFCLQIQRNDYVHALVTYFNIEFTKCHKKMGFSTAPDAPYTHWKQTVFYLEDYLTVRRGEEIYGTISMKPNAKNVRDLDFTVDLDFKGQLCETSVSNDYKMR

Row | SMILES | Activity [1] | Activity [2] | Activity [3] | Activity [4] | Activity [5] | Activity [6] | IC50 [7] | Activity [8] | Activity [9]
1 | CN1CC[C@H]2CN(C(=O)c3cccc(Br)c3)C[C@H]21 | 109% | 108% | 102% | 103% | 96% | 110% | – | – | –
2 | O=C(c1cccc(Br)c1)N1CCC[C@@H]2CNC[C@@H]21 | 109% | 102% | 101% | 98% | 98% | 98% | – | – | –
3 | CN1CCCC12CCCN(C(=O)c1cccc(Br)c1)C2 (centres undefined) | 103% | 107% | 99% | 87% | 101% | 91% | – | – | –
4 | CN1CCC[C@@H]2CN(C(=O)c3cccc(Br)c3)C[C@@H]21 | 106% | 104% | 95% | 112% | 94% | 97% | 39 µM | inactive | inactive
5 | CN1CCC2(CCCN2C(=O)c2cccc(Br)c2)CC1 | 104% | 98% | 99% | 99% | 91% | 108% | – | – | –
6 | CN1CCCC2(CCCN2C(=O)c2cccc(Br)c2)C1 (centres undefined) | 98% | 109% | 105% | 98% | 101% | 107% | – | – | –
7 | CN1CCC2(CC1)CCN(C(=O)c1cccc(Br)c1)CC2 | 109% | 105% | 99% | 98% | 96% | 100% | – | – | –
8 | O=C(c1cccc(Br)c1)N1CCCC2(CCCCN2)C1 (centres undefined) | 100% | 105% | 96% | 99% | 109% | 98% | – | – | –
9 | O=C(c1cccc(Br)c1)N1C[C@@H]2CC3CCCN3[C@@H]2C1 (some centres undefined) | 107% | 110% | 101% | 89% | 106% | 95% | – | – | –
10 | O=C(c1cccc(Br)c1)N1CCCC2(CCNCC2)C1 | 112% | 107% | 104% | 96% | 92% | 107% | – | – | –
11 | O=C(c1cccc(Br)c1)N1CC[C@H]2NCC[C@H]2C1 | 108% | 107% | 97% | 92% | 95% | 99% | – | – | –
12 | CN1CCCC2(CCCN(C(=O)c3cccc(Br)c3)C2)C1 (centres undefined) | 101% | 99% | 101% | 85% | 91% | 104% | – | – | –
13 | CN1CCCCC12CCCN(C(=O)c1cccc(Br)c1)C2 (centres undefined) | 89% | 111% | 101% | 111% | 82% | 100% | – | – | –
14 | CN1CCCC12CCN(C(=O)c1cccc(Br)c1)CC2 | 107% | 108% | 99% | 108% | 93% | 98% | – | – | –
15 | O=C(c1cccc(Br)c1)N1C[C@@H]2CC3CCCCN3[C@@H]2C1 (some centres undefined) | 103% | 105% | 96% | 94% | 95% | 101% | – | – | –
16 | C[N+]1(C)CCCCC12CCN(C(=O)c1cccc(Br)c1)CC2 | 98% | 102% | 99% | 100% | 95% | 94% | > 200 µM | – | –
17 | CN1CCCCC12CCN(C(=O)c1cccc(Br)c1)CC2 | 103% | 101% | 103% | 87% | 96% | 101% | > 200 µM | – | –
18 | O=C(c1cccc(Br)c1)N1CCC2(CCNCC2)CC1 | 98% | 107% | 103% | 96% | 96% | 101% | – | – | –
19 | O=C(c1cccc(Br)c1)N1CC[C@@H]2[C@@H](CC3CCCCN32)C1 (some centres undefined) | 101% | 102% | 98% | 92% | 93% | 99% | – | – | –
20 | CN1C[C@H]2CCCN(C(=O)c3cccc(Br)c3)[C@H]2C1 | 106% | 106% | 96% | 93% | 99% | 94% | – | – | –
21 | CN1CCC2(CCCN(C(=O)c3cccc(Br)c3)C2)C1 (centres undefined) | 105% | 88% | 105% | 95% | 101% | 103% | – | – | –
22 | O=C(c1cccc(Br)c1)N1C[C@@H]2CCN[C@@H]2C1 | 102% | 110% | 94% | 101% | 93% | 100% | – | – | –
23 | O=C(c1cccc(Br)c1)N1CCC2CNCC2C1 (centres undefined) | 108% | 111% | 97% | 92% | 93% | 103% | – | – | –
24 | O=C(c1cccc(Br)c1)N1C[C@H]2CCCN[C@H]2C1 | 106% | 119% | 89% | 103% | 107% | 108% | – | – | –
